Measured values taken from patent US8114840B2, “Medicament containing activated antithrombin III” (Hamburger Stiftung zur Forderung Von Wissenschaft und Kultur, priority 2000, dated 2012).

Tests used:
[1] = test system: monocytes through a HMEC-1 monolayer; assay: Transmigration of monocytes through endothelium (Transwell); format: cell-based, human; conditions: purified TSP 25 μg/ml
Procedure: Transmigration experiments were carried out as described by Kielbassa et al., 1998. The addition of IDAAT to the culture medium of the monocytes during a transmigration experiment stimulates dose-dependently the transmigration of monocytes through the endothelium by 2-3-fold (see FIG. 4).
(§1) Apoptotic PMNL were incubated for 30 minutes with Hepes-Tyrode buffer pH 7.4, washed, labelled with the anti-TSP antibody P10-PE and the fluorescence of 3000 cells was measured in a flow cytometer • b) PMNL were made apoptotic by incubation in a cell culture medium for 24 hours in an incubator according to Savill et al., 1992. Apoptotic PMNL were incubated for 30 minutes with TSP-1 (5 μg/ml) and IDAAT (10 μg/ml) in Hepes-Tyrode buffer pH 7.4, washed, labelled with the TSP antibody P10-PE and the fluorescence of 3000 cells was measured in a flow cytometer. • c) Procedure as in a and b: IDAAT was used at increasing concentrations, IDAAT mediates the binding of thrombospondin (10 μg/ml) that was either present endogenously or added exogenously. […] PE and FITC positive associates were measured using a flow cytometer. […]
After a 4 hour transmigration period, the inserts were carefully removed, the cell culture plate was placed for 30 min on ice in order to detach the adhered monocytes and the number of transmigrated monocytes was counted.

thrombocytes [2] = assay: Adhesion of thrombocytes to adhesion proteins (microtitre plate, hexosaminidase); format: cell-based; conditions: for inhibition of IDAAT-mediated adhesion of thrombocytes to collagen / inhibition of IDAAT-mediated adhesion of thrombocytes to thrombospondin (immobilized TSP-1): EDTA 5 mM; for inhibition of IDAAT-mediated adhesion of thrombocytes to thrombospondin (immobilized TSP-1): integrins 5 μg/ml, Wortmannin 20 nM, LY294002 50 μm, clone 37 with Fc receptor blocked by IV.3; for inhibition of IDAAT-mediated adhesion: Heparan sulfate 0-10 μg/ml, sulfatide 0-20 μg/ml
Procedure: The adhesion of thrombocytes was carried out according to Santoro et al, 1994. […] Non-adhering thrombocytes were thoroughly washed out. The number of adhering platelets was determined by lysing the platelets with Triton X-100 and determining the lysosomal enzyme hexosaminidase. In order to calibrate the adhesion assay a calibration series containing a known and increasing number of platelets was added to the microtitre plate and the absorbance of the reacted substrate p-nitrophenyl-N-acetyl-β-glucosaminide was determined in relation to the number of platelets.

[3] = test system: S. aureus binding to thrombocytes; assay: S. aureus-thrombocyte associate formation, flow cytometry; format: cell-based
Procedure: Thrombocytes were labelled with a thrombocyte-specific phycoerythrin-conjugated anti-GPIX antibody (clone Beb 1). Bacteria (various S. aureus strains) were adjusted with Tris-buffered saline solution (TBS) to a number of 250,000 microorganisms/μl and labelled with the RNA-dye Syto 13 [MoBiTec, Göttingen] at a concentration of 2 μM. Labelled bacteria and labelled thrombocytes were co-incubated for 10 minutes at a ratio of 10:1.
The cell population were analysed in a flow cytometer. Cells that were positive for both fluorochromes were classified as associates (see FIG. 12a). Thrombin stimulation and release of TSP from the α-granula of the platelets increased the percentage of platelets carrying bacteria by 2.5-fold relative to the total number of thrombocytes.

thrombocytes [4] = assay: Thrombocyte aggregation according to Born; format: cell-based; conditions: purified thrombospondin 25 μg/ml alone
Procedure: Gel-filtered platelets (200,000/μl) in Hepes-Tyrode buffer pH 7.4 containing fibrinogen (100 μg/ml) were examined in an aggregometer according to Born.
The method used was elucidated in detail in the description of the example. FIG. 21: The addition of monocytes (100/μl) to thrombocytes (300,000/μl) increases the adhesion of thrombocytes to TSP-1, whereas the addition of erythrocytes (20,000/μl) has an inhibitory effect. The method used was elucidated in detail in the description of the example. FIG. 22: The IDAAT-induced thrombocyte adhesion was inhibited by the inhibitors of PI-3 kinase Wortmannin (20 nM) and LY294002 (50 μm). For this purpose Wortmannin and LY294002 were preincubated for 10 minutes before adding IDAAT. FIG. 23: IDAAT mediates thrombospondin-mediated thrombocyte aggregation Thrombocyte aggregation was carded out according to Born 1962. TSP-1 (25 μg/ml) was pipetted into an aggregation-cuvette containing gel-filtered platelets (200,000/μl) in Hepes-Tyrode buffer pH 7.4 containing 100 μg/ml fibrinogen. […] Addition of IDAAT led to a weak aggregation reaction Simultaneous addition of IDAAT and soluble TSP-1 led to a pronounced aggregation. FIG. 24: IDAAT mediates the microparticle formation of thrombocytes

monocytes = assay: TSP-1 binding to monocytes, flow cytometry with anti-TSP antibody clone P10-PE; format: cell-based, human; conditions: 10 μg/ml purified TSP-1, without IDAAT; ~1% without additions
Procedure: Whereas without the addition of purified TSP-1 and without the addition of IDAAT only ˜1% of eluted human monocytes could be detected in a flow cytometer by an antibody (clone P10) which recognizes TSP-1 on the cell surface, the number increases to ca. 5% by adding 10 μg/ml purified TSP-1.
as §1, with “exogenously. FIG. 3: IDAAT cross-links apoptotic PMNL with monocytes by means of TSP Eluted PMNL and eluted monocytes were incubated together for 30 minutes at room temperature with TSP and IDAAT at various concentrations and the cells were fixed.” for “exogenously.”

TNF α = TNF α secretion of monocytes activated with S. aureus and interferon γ (ELISA); format: cell-based; conditions: substance alone
Procedure: FIG. 9: The IL-10 secretion of monocytes activated with S. aureus and interferon γ is increased by IDAAT. Thus IDAAT promotes the secretion of an interleukin which protects against LPS-induced lethality in animal experiments. The method used was carried out analogously to FIG. 8. IL-10 was determined by means of an ELISA. FIG. 10 (sequence in the figure title: SEQ ID NO:2): The TNF α secretion of monocytes activated with S. aureus and interferon γ is inhibited by the TSP-1 peptide […] NO: 2) (10a). […] TNF α was determined by means of an ELISA. The method used was carried out analogously to FIG. 8. FIG. 11: IDAAT inhibits the Arthus reaction in the ear of Balb-C mice • a) Mouse treated twice intraperitoneally at time 0 and 0+3 hours with 50 μg IDAAT each time. Arthus reaction in the left ear • b) Mouse treated intraperitoneally twice with control buffer. Arthus reaction in the left ear • c) BSA-FITC incorporated into the ears as a measure for the Arthus reaction in mice treated with IDAAT or control buffer. Arthus reaction in the left ear. FIG. 12: • a) dot plot of the thrombocyte-bacterial association • A: thrombocytes labelled with PE-conjugated anti-GPIX antibody (Beb 1) • B: bacteria (S. aureus) labelled with Syto 13 • C: bacteria-thrombocyte associates emitting both fluorescences • b) S. aureus (Cowan 1)-thrombocyte associates

TSP-1: thrombospondin-1, trimeric modular glycoprotein purified from human thrombocytes
transmigration of monocytes [1]: stimulates the transmigration | inhibition of IDAAT-mediated adhesion of thrombocytes to collagen (thrombocytes [2]): inhibits | inhibition of IDAAT-mediated adhesion of thrombocytes to thrombospondin (immobilized TSP-1) (thrombocytes [2]): inhibits | adhesion of thrombocytes to collagen (thrombocytes [2]; FIG. 20, dose dependence): dose-dependently inhibits | S. aureus (Cowan-1)-thrombocyte associates ([3]; TSP-1 added in addition to IDAAT): further increase in the number of associates | thrombocyte aggregation (thrombocytes [4]): no aggregation | TSP-1 positive monocytes (monocytes): ca. 5%

O=C(O)CN(CCN(CC(=O)O)CC(=O)O)CC(=O)O [EDTA]
inhibition of IDAAT-mediated adhesion of thrombocytes to collagen (thrombocytes [2]): completely inhibits | inhibition of IDAAT-mediated adhesion of thrombocytes to thrombospondin (immobilized TSP-1) (thrombocytes [2]): completely inhibits

RFYVVMWK (listed as Homo sapiens) [TSP-1 peptide RFYVVMWK]
release/secretion of TNF α (TNF α): inhibited

Thrombin [reference compound]
increase of percentage of platelets carrying bacteria ([3]; thrombin stimulation, release of TSP from α-granula): 2.5 fold

sulfatide
inhibition of IDAAT-mediated adhesion (thrombocytes [2]): do not inhibit

Heparan sulfate
inhibition of IDAAT-mediated adhesion (thrombocytes [2]): do not inhibit
